Source: patent publication US7998754B2, “In vitro method for the simultaneous detection and identification of antibiotics of different classes and corresponding diagnostic kit” (Unisensor S.A., priority 2005, dated 2011)
Where two headings read alike, the source gives them in different places.

How the values were obtained:
β-lactame receptor (RSA) [1] = target: T1, β-lactame receptor (RSA) (Staphylococcus aureus, UniProt P18357); assay type: binding; conditions: milk
T1 construct: made in house
T1 sequence (P18357 331-585 limits assumed): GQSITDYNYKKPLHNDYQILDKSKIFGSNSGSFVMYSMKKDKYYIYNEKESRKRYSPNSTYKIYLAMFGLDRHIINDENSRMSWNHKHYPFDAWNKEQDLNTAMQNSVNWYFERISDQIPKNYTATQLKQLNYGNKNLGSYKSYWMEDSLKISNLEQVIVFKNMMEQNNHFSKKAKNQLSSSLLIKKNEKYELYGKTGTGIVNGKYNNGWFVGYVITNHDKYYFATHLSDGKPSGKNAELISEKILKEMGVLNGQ
Protocol: (§1) The reactive mixture comprises: • 5 parts of β-lactame receptor (RSA) at a concentration of 360 nM; • 10 parts of a monoclonal anti-RSA antibody attached to colloidal gold (OD=10 at 520 nm); • 1 part of biotinylated and diluted anti-sulfadimethoxin in NaPi 50 mM, NaCl 150 mM, pH 7.8; • 10 parts of a dilution of BSA-sulfadimethoxin-gold of 40 nm; • 24 parts of Hepes buffer 120 mM, pH 8, BSA 2%, Dextran 1%, sucrose 5%. This mixture is prepared either as required or lyophilisated for 20 hours. Biotinylation of the Anti-Sulfadimethoxin Antibody
(§2) The recovery system is identical to that of example 1. However, in the present case, it is the biotinylated antisulfamide antibody that will be recovered in the avidine fixed at the second capture point above the control zone.
(§3) 200 μL of cold milk are incubated for 15 minutes at 30° C. in the presence of 50 μL of the reagents prepared above. After this first incubation, the above-described recovery element is immersed in the solution. Final interpretation is made after a second incubation of 15 minutes.

[2] = test system: tetracycline receptor (TetR); assay: Example 2 three-parameter dipstick test in milk, tetracycline capture zone (format 1); assay type: binding, E. Coli
Protocol: (§4) This mixture is prepared either as required or lyophilisated for 20 hours. The Recovery System
(§5) The other capture zones are identical but differently positioned, as in FIG. 2.
(§6) A single control zone serves as a reference for the three markers.
(§7) 200 μL of cold milk are incubated at 50° C. in the presence of 50 μl of the reagents prepared and/or lyophilisated as above. After 3 minutes of incubation at 50° C., the above-described recovery element is immersed in the solution. The final interpretation is made after 3 minutes of incubation by means of an optical dipstick reader available at Matest (Germany).
(§8) As a general rule, if the ratio of the intensities of the concerned test signal relative to the control signal is less than or equal to 1, the sample is considered as positive for the parameter (compound) concerned.

[3] = test system: tetracycline receptor (TetR); assay: Example 4 dipstick test in meat (pig muscle) extract, tetracycline capture zone (format 2); assay type: binding, E. Coli
Protocol: (§9) This mixture is either prepared as required or lyophilisated for 20 hours. The Recovery System
(§10) The recovery system is similar to that of example 1. However, in the present case, it is an anti-mouse antibody that forms the first capture point where the monoclonal anti-TetR antibody will be recovered and it is a chicken anti-rabbit antibody that forms the second capture point where the antisulfamide antibody will be recovered.
(§11) 30 ml of a buffer of NaPi 50 mM, pH 8 is added to 10 g of pig muscle and the mixture is mixed with a mixer of type MiniMix (Interscience, F) for 2 minutes. The solution, collected in an Eppendorf tube, is then centrifuged for 1 minute at 6,000 rpm to recover the supernatant from it. 200 μL of supernatant are incubated for 15 minutes at 25° C. in the presence of 50 μL of the reagents prepared above. After this first incubation, the above-described recovery element is immersed in the solution. The final interpretation is made after a second incubation of 15 minutes.

[4] = test system: anti-sulfadimethoxin antibody; assay: Example 2 three-parameter dipstick test in milk, sulfadimethoxin capture zone (format 1); assay type: binding
Protocol: as §4, §5
The preparation is achieved by the procedure described by Dixon-Holland and Katz^(9). 100 mg of sulfadimethoxin and 200 mg of BSA solubilized in 25 ml of a mixture, comprising two parts of a phosphate buffer of 50 mM, pH 7.2 and 1 part of dioxane, are incubated in the presence of 120 μL of 25% glutaraldehyde stirred for 3 hours at 25° C. The solution is then dialysed for 6 days at 4° C. against 100 volumes of a buffer of NaPi 50 mM, pH 7.2 with a change of buffer every 12 hours.
as §6, §7, §8

[5] = test system: polyclonal antisulfamide rabbit antibody; assay: Example 5 dipstick test in milk, sulfamide capture zone (format 2); assay type: binding
Protocol: (§12) This mixture is either prepared as required or lyophilisated for 20 hours.
as §3

[6] = test system: tetracycline receptor (TetR); assay: Example 5 dipstick test in milk, tetracycline capture zone (format 1); assay type: binding, E. Coli
Protocol: as §12, §3

[7] = test system: biotinylated anti-sulfadimethoxin antibody; assay: Example 3 dipstick test in milk, sulfamide capture zone (format 2); assay type: binding
Protocol: as §1
825 μL of a solution comprising 5 mg/ml of anti-sulfadimethoxin antibody dialysed in a carbonate buffer 100 mM, pH 9.2 are incubated in the presence of 165 μL of a solution of biotin-LC-NHS at 1.5 mg/ml (available at Perbio, Inc.) for 2 hours at 25° C. sheltered from light. The reaction is blocked by the addition of 10 μL of a solution of a Tris buffer 1M pH 8 for 30 minutes before dialysis 2× for 10 hours against a buffer of NaPi 50 mM, NaCl 150 mM, pH 7.8.
The preparation of BSA-sulfadimethoxin described in example no. 2 is used fixed to particles of colloidal gold in a protocol similar to that described in example no. 1 for preparing the control BSA-gold solution.
as §2, §3

[8] = test system: antisulfamide rabbit antibody; assay: Example 4 dipstick test in meat (pig muscle) extract, sulfamide capture zone (format 2); assay type: binding
Protocol: as §9, §10, §11

β-lactame receptor (RSA) [9] = target: T1, β-lactame receptor (RSA); assay type: binding; conditions: milk; remark: listed apart in the source
Protocol: as §12, §3

β-lactame receptor (RSA) [10] = target: T1, β-lactame receptor (RSA); assay type: binding; conditions: milk; remark: listed apart in the source
Protocol: as §4, §5, §6, §7, §8

- Ratio of the measurement intensities B/C (β-lactame receptor (RSA) [1]; sulfamide 50 ppb): 1.95
- Ratio of the measurement intensities B/C (β-lactame receptor (RSA) [1]; sulfamide 100 ppb): 1.9
- Ratio of the measurement intensities B/C (β-lactame receptor (RSA) [1]; sulfamide 150 ppb): 2.2
- Ratio of the measurement intensities B/C (β-lactame receptor (RSA) [1]; sulfamide 200 ppb): 2.1
- Ratio of the measurement intensities T/C ([2]; sulfamide 50 ppb): 1.9
- Ratio of the measurement intensities T/C ([2]; sulfamide 100 ppb): 1.9
- Ratio of the measurement intensities T/C ([2]; sulfamide 150 ppb): 2.1
- Ratio of the measurement intensities T/C ([2]; sulfamide 200 ppb): 2.1
- Ratio of the measurement intensities T/C ([3]; sulfamide 50 ppb): 3.4
- Ratio of the measurement intensities T/C ([3]; sulfamide 100 ppb): 3.1
- Ratio of the measurement intensities T/C ([3]; sulfamide 150 ppb): 3.4
- Ratio of the measurement intensities T/C ([3]; sulfamide 200 ppb): 3
- Ratio of the measurement intensities T/C ([6]; sulfamide 50 ppb): 2.8
- Ratio of the measurement intensities T/C ([6]; sulfamide 100 ppb): 2.7
- Ratio of the measurement intensities T/C ([6]; sulfamide 200 ppb): 3
- Ratio of the measurement intensities B/C (β-lactame receptor (RSA) [9]; sulfamide 50 ppb): 2.1
- Ratio of the measurement intensities B/C (β-lactame receptor (RSA) [9]; sulfamide 100 ppb): 1.8
- Ratio of the measurement intensities B/C (β-lactame receptor (RSA) [9]; sulfamide 200 ppb): 1.8
- Ratio of the measurement intensities B/C (β-lactame receptor (RSA) [10]; sulfamide 50 ppb): 2.4
- Ratio of the measurement intensities B/C (β-lactame receptor (RSA) [10]; sulfamide 100 ppb): 2.2
- Ratio of the measurement intensities B/C (β-lactame receptor (RSA) [10]; sulfamide 150 ppb): 1.9
- Ratio of the measurement intensities B/C (β-lactame receptor (RSA) [10]; sulfamide 200 ppb): 2.4
SMILES: COc1cc(NS(=O)(=O)c2ccc(N)cc2)nc(OC)n1 [Sulfadimethoxin]
- Ratio of the measurement intensities S/C ([4]; ampicillin 4 + tetracycline 75 + sulfamide 100 ppb together): 0.7
- Ratio test/control ([4]; at the detection limit concentration): 0.8
- Concentration detection limit ([4]; sulfadimethoxin, three-parameter test): 100 ppb
- Ratio of the measurement intensities S/C ([4]; sulfamide 50 ppb): 1.3
- Ratio of the measurement intensities S/C ([4]; sulfamide 100 ppb): 0.8
- Ratio of the measurement intensities S/C ([4]; sulfamide 150 ppb): 0.6
- Ratio of the measurement intensities S/C ([4]; sulfamide 200 ppb): 0.4
- Ratio of the measurement intensities S/C ([5]; sulfamide 50 ppb): 1.3
- Ratio of the measurement intensities S/C ([5]; sulfamide 100 ppb): 0.9
- Ratio of the measurement intensities S/C ([5]; sulfamide 200 ppb): 0.3
- Ratio of the measurement intensities S/C ([5]; β-lactame 4 + tetracycline 100 + sulfamide 100 ppb together): 0.8
- Ratio of the measurement intensities S/C ([7]; sulfamide 50 ppb): 2
- Ratio of the measurement intensities S/C ([7]; sulfamide 100 ppb): 1
- Ratio of the measurement intensities S/C ([7]; sulfamide 150 ppb): 0.85
- Ratio of the measurement intensities S/C ([7]; sulfamide 200 ppb): 0.7
- Ratio of the measurement intensities S/C ([7]; β-lactame 4 + sulfamide 100 ppb together): 0.95
- Ratio of the measurement intensities S/C ([8]; sulfamide 50 ppb): 1.6
- Ratio of the measurement intensities S/C ([8]; sulfamide 100 ppb): 1
- Ratio of the measurement intensities S/C ([8]; sulfamide 150 ppb): 0.85
- Ratio of the measurement intensities S/C ([8]; sulfamide 200 ppb): 0.7
- Ratio of the measurement intensities S/C ([8]; tetracycline 100 + sulfamide 100 ppb together): 0.95
